Measured values taken from US20230321253A1, “BIFUNCTIONAL COMPOUNDS AND PHARMACEUTICAL USES THEREOF” (RISEN (SUZHOU) PHARMA TECH CO., LTD., priority 2022, published 2023).

Columns and labels:
Aspc-1 cells = assay: Cell proliferation study in Aspc-1 cells (Cell Titer Glo); format: cell-based; settings: Homo sapiens, ASPC1, 72 hours, read-out: IC50, inhibitory effect on cellular proliferation
Protocol: Aspc-1 (Cobioer, CBP60546) cells were grown in RPMI 1640 (Gibco, 61870127) supplemented with 10% fetal bovine serum (Gibco, 10099141), 1% penicillin-streptomycin (Gibco, 15070-063). Aspc-1 cells in exponential growth phase were seeded into 96-well plate (Corning, 3599) at density of 4×10^3/well. Cells were cultured overnight at 37° C. with 5% CO2. On the next day, cells were treated with test compound at various concentrations for 72 hours in 37° C., 5% CO2 incubator (final DMSO concentration was 0.1%). After treatment, 100 μL Cell Tier Glo (Promega, G7573) was added to every well of the cell plates and the plates were incubated at room temperature (RT) for 10 minutes. Cell growth status was measured with Cell Tier Glo (Promega, G7573) following the manufacturer's instructions. The inhibition curve was obtained with GraphPad 7.0 software using four-parameter equation.

KRAS-G12D protein = target: T1, KRAS-G12D protein (Homo sapiens, UniProt P01116, G12D); assay: KRAS-G12D protein degradation study in Aspc-1 cells (western blot); format: cell-based; settings: for inhibition at 0.05 µM / inhibition at 0.1 µM / inhibition at 1 µM: ASPC1, 24 h, 24 hours; for inhibition at 0.05 µM: Aspc-1 cells treated with 50 nM compound, read-out: Rate of degradation (KRAS^G12D); for DC50: Aspc-1 cells, read-out: DC50 of test compound-induced KRAS^G12D protein degradation; for inhibition at 0.1 µM: Aspc-1 cells treated with 0.1 μM compound; for inhibition at 0.1 µM / inhibition at 1 µM: read-out: Rate of protein degradation (KRAS^G12D); for inhibition at 1 µM: Aspc-1 cells treated with 1 μM compound
T1 construct: host or cells: Aspc-1 cells
Procedure, shortened: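 AsPC-1 cells were treated with compound for 24 h at 37° C (0.1% DMSO final), then lysed; KRAS levels measured by western blot. Degradation % = 1 − (KRAS/GAPDH, compound) ÷ (KRAS/GAPDH, DMSO), ×100; DC50 derived from concentration curves.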

T1 sequence (P01116 1-188 isoform P01116-2 G12D): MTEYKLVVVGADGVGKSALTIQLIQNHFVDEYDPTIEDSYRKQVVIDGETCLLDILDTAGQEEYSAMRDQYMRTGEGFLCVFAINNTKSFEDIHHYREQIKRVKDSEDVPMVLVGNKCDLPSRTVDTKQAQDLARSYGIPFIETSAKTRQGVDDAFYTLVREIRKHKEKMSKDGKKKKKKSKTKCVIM

Compound	IC50 (Aspc-1 cells) [nM]	inhibition at 0.05 µM (KRAS-G12D protein) [%]	DC50 (KRAS-G12D protein) [nM]	inhibition at 0.1 µM (KRAS-G12D protein) [%]	inhibition at 1 µM (KRAS-G12D protein) [%]
CCc1c(F)ccc2cc(O)cc(-c3ncc4c(N5CC6CCC(C5)N6)nc(OCCCN5CCN(C(=O)CCCCC(=O)N[C@H](C(=O)N6C[C@H](O)C[C@H]6C(=O)NCc6ccc(-c7scnc7C)cc6)C(C)(C)C)CC5)nc4c3F)c12 [Compound 26]	1000 to 5000	–	–	–	–
C#Cc1c(F)ccc2cc(O)cc(-c3ncc4c(N5CC6CCC(C5)N6)nc(OCC5(CN6CCC(CN7CCC(c8ccc9c(C%10CCC(=O)NC%10=O)nn(C)c9c8)CC7)CC6)CC5)nc4c3F)c12 (centres unmarked) [Compound 133]	< 100	> 60	< 10	–	–
C#Cc1c(F)ccc2cc(O)cc(-c3ncc4c(N5CC6CCC(C5)N6)nc(OCC5(CN6CCC(CN7CCC(c8ccc9c(c8)CN(C8CCC(=O)NC8=O)C9=O)CC7)CC6)CC5)nc4c3F)c12 (centres unmarked) [Compound 146]	< 100	> 60	< 10	–	–
C#Cc1c(F)ccc2cc(O)cc(-c3ncc4c(N5CC6CCC(C5)N6)nc(OC5CCCN(CCCCCCCCCCC(=O)N6CCC(c7ccc8c(C9CCC(=O)NC9=O)nn(C)c8c7)CC6)C5)nc4c3F)c12 (centres unmarked) [Compound 49]	1000 to 5000	–	–	–	–
C#Cc1c(F)ccc2cc(O)cc(-c3ncc4c(N5CC6CCC(C5)N6)nc(OC5CCN(CC(=O)N6CCC7(CC6)CC(N6CCC(c8ccc9c(C%10CCC(=O)NC%10=O)nn(C)c9c8)CC6)C7)CC5)nc4c3F)c12 (centres unmarked) [Compound 82]	1000 to 5000	–	< 10	> 60	–
C#Cc1c(F)ccc2cc(O)cc(-c3ncc4c(N5CC6CCC(C5)N6)nc(OCC5(CN6CC7(CC(N8CCC(c9ccc%10c(C%11CCC(=O)NC%11=O)nn(C)c%10c9)CC8)C7)C6)CC5)nc4c3F)c12 (centres unmarked) [Compound 169]	< 100	> 60	–	–	–
C#Cc1c(F)ccc2cc(O)cc(-c3ncc4c(N5CC6CCC(C5)N6)nc(OCC5(CN6CCC7(CC6)CC(N6CCC(c8cccc9c8CN(C8CCC(=O)NC8=O)C9=O)CC6)C7)CC5)nc4c3F)c12 (centres unmarked) [Compound 157]	101 to 1000	11 to 30	> 200	–	–
C#Cc1c(F)ccc2cc(O)cc(-c3ncc4c(N5CC6CCC(C5)N6)nc(OCC5(CN6CCC(C(=O)N7CCC(N8CCC(c9ccc%10c(C%11CCC(=O)NC%11=O)nn(C)c%10c9)CC8)CC7)CC6)CC5)nc4c3F)c12 (centres unmarked) [Compound 129]	< 100	> 60	< 10	–	–
C#Cc1c(F)ccc2cc(O)cc(-c3ncc4c(N5CC6CCC(C5)N6)nc(OCC5(CN6CCC(CN7CCC(c8ccc9c%10c(cccc8%10)C(=O)N9C8CCC(=O)NC8=O)CC7)CC6)CC5)nc4c3F)c12 (centres unmarked) [Compound 168]	< 100	> 60	–	–	–
C#Cc1c(F)ccc2cc(O)cc(-c3ncc4c(N5CC6CCC(C5)N6)nc(OCCCN5CCN(C(=O)CCCCC(=O)N[C@H](C(=O)N6C[C@H](O)C[C@H]6C(=O)NCc6ccc(-c7scnc7C)cc6)C(C)(C)C)CC5)nc4c3F)c12 [Compound 27]	101 to 1000	–	–	–	–
C#Cc1c(F)ccc2cc(O)cc(-c3ncc4c(N5CC6CCC(C5)N6)nc(OC5CCN(CCCCCCCCCCC(=O)N[C@H](C(=O)N6C[C@H](O)C[C@H]6C(=O)NCc6ccc(-c7scnc7C)cc6)C(C)(C)C)CC5)nc4c3F)c12 [Compound 43]	101 to 1000	–	–	–	> 60
CCc1c(F)ccc2cc(O)cc(-c3ncc4c(N5CC6CCC(C5)N6)nc(OCC5(CN6CCC(C(=O)N7CCC8(CC7)CC(N7CCC(c9ccc%10c(C%11CCC(=O)NC%11=O)nn(C)c%10c9)CC7)C8)CC6)CC5)nc4c3F)c12 (centres unmarked) [Compound 156]	< 100	31 to 60	< 10	–	–
C#Cc1c(F)ccc2cc(O)cc(-c3ncc4c(N5CC6CCC(C5)N6)nc(OCCCN5CCN(CCCCCCCC(=O)N[C@H](C(=O)N6C[C@H](O)C[C@H]6C(=O)NCc6ccc(-c7scnc7C)cc6)C(C)(C)C)CC5)nc4c3F)c12 [Compound 31]	1000 to 5000	–	–	–	> 60
C#Cc1c(F)ccc2cc(O)cc(-c3ncc4c(N5CC6CCC(C5)N6)nc(OCCN5CCN(CCCCCCCC(=O)N[C@H](C(=O)N6C[C@H](O)C[C@H]6C(=O)NCc6ccc(-c7scnc7C)cc6)C(C)(C)C)CC5)nc4c3F)c12 [Compound 32]	1000 to 5000	–	–	–	11 to 30
C#Cc1c(F)ccc2cc(O)cc(-c3ncc4c(N5CC6CCC(C5)N6)nc(OCC5(CN6CCC7(CC6)CC(N6CCN(c8ccc9c(c8)C(=O)N(C8CCC(=O)NC8=O)C9=O)CC6)C7)CC5)nc4c3F)c12 (centres unmarked) [Compound 154]	< 100	> 60	< 10	–	–
CCc1c(F)ccc2cc(O)cc(-c3ncc4c(N5CC6CCC(C5)N6)nc(OC[C@@H]5CCCN5C(=O)CCCCCCCC(=O)N[C@H](C(=O)N5C[C@H](O)C[C@H]5C(=O)NCc5ccc(-c6scnc6C)cc5)C(C)(C)C)nc4c3F)c12 [Compound 35]	1000 to 5000	–	–	–	31 to 60
C#Cc1c(F)ccc2cc(O)cc(-c3ncc4c(N5CC6CCC(C5)N6)nc(OCC5(CN6CCC(CCN7CCC(c8ccc9c(C%10CCC(=O)NC%10=O)nn(C)c9c8)CC7)CC6)CC5)nc4c3F)c12 (centres unmarked) [Compound 149]	< 100	> 60	< 10	–	–
C#Cc1c(F)ccc2cc(O)cc(-c3ncc4c(N5CC6CCC(C5)N6)nc(OCC5(CN6CCC(C(=O)N7CCC8(CC7)CC(N7CCC(c9ccc%10c(C%11CCC(=O)NC%11=O)nn(C)c%10c9)CC7)C8)CC6)CC5)nc4c3F)c12 (centres unmarked) [Compound 111]	< 100	–	< 10	> 60	–
C#Cc1c(F)ccc2cc(O)cc(-c3ncc4c(N5CC6CCC(C5)N6)nc(OC5CCN(CCCCCCCCCCCC(=O)N[C@H](C(=O)N6C[C@H](O)C[C@H]6C(=O)NCc6ccc(-c7scnc7C)cc6)C(C)(C)C)CC5)nc4c3F)c12 [Compound 46]	101 to 1000	–	–	–	> 60
C#Cc1c(F)ccc2cc(O)cc(-c3ncc4c(N5CC6CCC(C5)N6)nc(OC5CCN(CCCCCCCCCC(=O)N6CCC(c7ccc8c(C9CCC(=O)NC9=O)nn(C)c8c7)CC6)CC5)nc4c3F)c12 (centres unmarked) [Compound 50]	1000 to 5000	–	–	–	11 to 30
C#Cc1c(F)ccc2cc(O)cc(-c3ncc4c(N5CC6CCC(C5)N6)nc(OCC5(CN6CCC7(CC6)CC(N6CCC(c8ccc9c(c8)n(C)c(=O)n9C8CCC(=O)NC8=O)CC6)C7)CC5)nc4c3F)c12 (centres unmarked) [Compound 164]	< 100	> 60	< 10	–	–
CCc1c(F)ccc2cc(O)cc(-c3ncc4c(N5CC6CCC(C5)N6)nc(OCC5(CN6CCC7(CC6)CC(N6CCC(c8ccc9c(C%10CCC(=O)NC%10=O)nn(C)c9c8)CC6)C7)CC5)nc4c3F)c12 (centres unmarked) [Compound 160]	< 100	> 60	< 10	–	–
C#Cc1c(F)ccc2cc(O)cc(-c3ncc4c(N5CC6CCC(C5)N6)nc(OCCCN5CCN(C(=O)CN6CCC(c7ccc8c(C9CCC(=O)NC9=O)nn(C)c8c7)CC6)CC5)nc4c3F)c12 (centres unmarked) [Compound 33]	101 to 1000	–	–	31 to 60	> 60
CCc1c(F)ccc2cc(O)cc(-c3ncc4c(N5CC6CCC(C5)N6)nc(OC5CCN(CCCCCCCCCC(=O)N[C@H](C(=O)N6C[C@H](O)C[C@H]6C(=O)NCc6ccc(-c7scnc7C)cc6)C(C)(C)C)CC5)nc4c3F)c12 [Compound 42]	1000 to 5000	–	–	–	–
C#Cc1c(F)ccc2cc(O)cc(-c3ncc4c(N5CC6CCC(C5)N6)nc(OC5CCCN(CCCCCCCCCCC(=O)N[C@H](C(=O)N6C[C@H](O)C[C@H]6C(=O)N[C@@H](C)c6ccc(-c7scnc7C)cc6)C(C)(C)C)C5)nc4c3F)c12 (some centres unmarked) [Compound 48]	1000 to 5000	–	–	–	–
C#Cc1c(F)ccc2cc(O)cc(-c3ncc4c(N5CC6CCC(C5)N6)nc(OCCCN5CCN(C(=O)CN6CCN(c7ccc8c(c7)C(=O)N(C7CCC(=O)NC7=O)C8=O)CC6)CC5)nc4c3F)c12 (centres unmarked) [Compound 60]	–	–	–	≤ 10	11 to 30
C#Cc1c(F)ccc2cc(O)cc(-c3ncc4c(N5CC6CCC(C5)N6)nc(OC5CCN(CCCCCCCC(=O)N[C@H](C(=O)N6C[C@H](O)C[C@H]6C(=O)NCc6ccc(-c7scnc7C)cc6)C(C)(C)C)CC5)nc4c3F)c12 [Compound 39]	5000 to 10000	–	–	–	–
C#Cc1c(F)ccc2cc(O)cc(-c3ncc4c(N5CC6CCC(C5)N6)nc(OCC5(CN6CCC7(CC6)CC(N6CCC(c8cccc9c8C(=O)N(C8CCC(=O)NC8=O)C9=O)CC6)C7)CC5)nc4c3F)c12 (centres unmarked) [Compound 171]	–	≤ 10	–	–	–
C#Cc1c(F)ccc2cc(O)cc(-c3ncc4c(N5CC6CCC(C5)N6)nc(OCCCN5CCC(C(=O)N6CCC(c7ccc8c(C9CCC(=O)NC9=O)nn(C)c8c7)CC6)CC5)nc4c3F)c12 (centres unmarked) [Compound 72]	–	–	–	> 60	> 60
C#Cc1c(F)ccc2cc(O)cc(-c3ncc4c(N5CC6CCC(C5)N6)nc(OCCCN5CCN(CC(=O)N6CCN(C(=O)C[C@H](NC(=O)[C@@H]7C[C@@H](O)CN7C(=O)[C@@H](NC(=O)C7(F)CC7)C(C)(C)C)c7ccc(-c8scnc8C)cc7)CC6)CC5)nc4c3F)c12 [Compound 63]	–	–	–	≤ 10	11 to 30
